Experiment [1] deals with incision pain model. The experiment is described as follows: Incision pain model in SD rats, Von Frey test. The experiment is classed as in vivo. Particulars: SD rats, Mean + SEM, n = 10. As to the method: Experimental Example 7: Pharmacodynamic effect study of compounds in incision pain model in SD rats
Experimental animals: SD rats, male, 180-220 g.
(§1) Compound preparation: 5% (final preparation volume) of DMSO was added to dissolve the test compound, and then 10% (final preparation volume) of Cremophor EL and 85% Saline were sequentially added.
(§2) A plantar incision pain model was established in rats via surgery before the administration and test. Rats were placed in an anesthesia induction chamber and given 3%-4% isoflurane for anesthesia induction. After the anesthesia induction, a breathing mask was applied, and the isoflurane concentration was adjusted to 1%-2% to prevent the rats from suffering pain during the surgery. Each rat was placed in a supine position, and the surgical site was disinfected with alcohol and iodophor. Under sterile conditions, a 0.5 cm longitudinal incision was made on the left hind paw surface, 0.2 cm away from the heel, extending toward the toes. The skin and fascia were incised; the plantar muscle was separated, slightly lifted, and longitudinally incised. The skin was then sutured with 5-0 sutures and disinfected.
(§3) 2. Administration and test
(§4) The Von Frey test was performed once before the surgery. On the second day after animal modeling, the test was repeated, and animals meeting the baseline requirements were selected for enrollment. The animals were randomly divided into 6 groups based on the 50% PWT values, with 10 animals per group. Administration was performed under a double-blind test protocol. The 50% PWT of the animals was measured separately before administration (baseline) and at 0.5 h, 2 h, 4 h, 6 h, or 8 h after administration, and a single dose was administered. The model control group was given normal saline, while the compound groups were given the compounds according to the administration doses in the table below.

Experiment [2] relates to formalin pain model. In words: Rat formalin pain model. It is filed as in vivo, SD rats. Particulars: SD rats, 125 mg/kg p.o. 120 min before 5% formalin, Mean + SD, n = 10. The procedure: Experimental Example 10: Pharmacodynamic effect study of compounds in rat formalin pain model
Experimental animals: SD rats, male, 180-200 g.
Compound preparation: 5% (final preparation volume) of DMSO was added to dissolve the test compound, and then 10% (final preparation volume) of Cremophor EL and 85% Saline were sequentially added; an appropriate amount of Etoricoxib was weighed, 5% (final preparation volume) of DMSO was added to dissolve the test compound, and then 5% (final preparation volume) of HS-15 and 90% Saline were sequentially added; the tramadol injection was diluted with normal saline to the desired concentration.
Each group consisted of 10 animals, and 50 µL of a 5% formalin solution was injected using a microsyringe into the right plantar region.
as §3
Based on different pharmacokinetic properties of the drugs, the administration was performed at 0 min, 60 min, and 120 min before modeling. After injection of the formalin, the number of pain responses in the rats was observed. […] Spontaneous pain responses were observed once every 5 min, and the number of pain responses in the rats within 1 min was counted, with a total observation duration of 60 min. Inhibition rate = (number of pain responses in control group - number of pain responses in administration group)/number of pain responses in control group × 100%.
Table 12. Administration information of compounds of the present disclosure in rat formalin model

Experiment [3] deals with acetic acid writhing model. The experiment is described as follows: Mouse acetic acid writhing model. It is filed as in vivo, ICR mice. The note with it: ICR mice, Dose 50 mg/kg. As to the method: Experimental Example 11: Pharmacodynamic effect study of compounds in mouse acetic acid writhing model
Experimental animals: ICR mice, male, 20-24 g.
Compound preparation: 5% (final preparation volume) of DMSO was added to dissolve the test compound, and then 10% (final preparation volume) of Cremophor EL and 85% Saline were sequentially added; an appropriate amount of Etoricoxib was weighed, 5% (final preparation volume) of DMSO was added to dissolve the test compound, and then 5% (final preparation volume) of HS-15 and 90% Saline were sequentially added.
• 1. The mice were randomly grouped based on the body weight for model establishment, with 10 animals per group. A 0.8% (v/v) acetic acid solution was intraperitoneally injected at an injection volume of 10 mL/kg. • 2. Administration and test
Administration was performed 60 min before modeling. After the acetic acid solution was injected, the number of writhing responses in mice was observed. […] The number of writhing responses was observed and recorded during two intervals: 0-15 min and 15-30 min, with a total observation duration of 30 min. Inhibition rate = (number of writhing responses in control group - number of writhing responses in administration group)/number of writhing responses in control group × 100%. The model control group was given normal saline, the positive control group 1 was given etoricoxib at 20 mg/kg, the positive control group 2 was given VX-548 at 50 mg/kg, and the remaining groups were given the compounds of the present disclosure according to the administration doses in the table below.
On the technique in general: In writhing tests, fewer writhes than in controls are read as antinociception.

Experiment [4] deals with CFA-induced rat inflammatory pain model. In words: CFA-induced rat inflammatory pain model, Von Frey test. The experiment is classed as in vivo, SD rats. Particulars: SD rats CFA, Mean + SEM, n = 10. The procedure:
Experimental Example 9: Pharmacodynamic effect study of compounds in CFA-induced rat inflammatory pain model Experimental animals: SD rats, male, 180-220 g.
Compound preparation: 5% (final preparation volume) of DMSO was added to dissolve the test compound, and then 10% (final preparation volume) of Cremophor EL and 85% Saline were sequentially added; an appropriate amount of Celecoxib was weighed, 5% (final preparation volume) of DMSO was added to dissolve the test compound, and then 5% (final preparation volume) of HS-15 and 90% Saline were sequentially added.
SD rats were anesthetized with isoflurane. The right hind paw was disinfected, a needle was inserted subcutaneously at the posterior plantar aspect, and 50 µL of complete Freund's adjuvant (CFA, 1 mg/mL) was administered via subcutaneous injection at the midplantar region, with the needle withdrawn slowly while rotating to prevent leakage. After modeling, local redness and swelling of the soles of the feet, difficulty in walking, and lifting of the affected feet were observed.
as §3
as §4, with “modeling,” for “modeling, the test was repeated, and”, “and” for “4 h, 6 h, or”, “administration.” for “administration, and a single dose was administered.”

The target of experiment [5] is T1, Nav1.8 channels (Homo sapiens, UniProt Q9Y5Y9).
T1 construct: expressed in transfected cells
In words: Manual patch-clamp, current of stably overexpressed Nav1.8 channels (resting state voltage program). It is filed as cell-based. An outline of the steps:
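Whole-cell manual patch clamp on cells stably overexpressing Nav1.8, held at -120 mV and stepped to 0 mV for 50 ms every 20 s (resting-state protocol). Compounds were perfused in ascending concentrations, each for 5 min or until stable; block of peak current was calculated at steady state.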
On the technique in general: In patch-clamp work, channel activity is measured electrically.

Experiment [6] relates to incision pain model. The experiment is described as follows: Incision pain model in ICR mice, Von Frey test. The experiment is classed as in vivo. The note with it: Mean + SEM, n = 10; for PWT 50% value (g) Post-surgery, Preadministration / PWT 50% value (g) Pre-surgery: 50 mg/kg group; for PWT 50% value (g) Post-surgery, Preadministration: baseline before administration; for PWT 50% value (g) Pre-surgery: baseline before surgery; for PWT 50% value (g) 0.5 h / PWT 50% value (g) 2 h / PWT 50% value (g) 4 h: 50 mg/kg single dose; for PWT 50% value (g) 0.5 h: 0.5 h after administration; for PWT 50% value (g) 2 h: 2 h after administration; for PWT 50% value (g) 4 h: 4 h after administration. As to the method:
Experimental Example 6: Pharmacodynamic effect study of compounds in incision pain model in ICR mice Experimental animals: ICR mice, male, 28-35 g.
as §1
as §2, with “in mice” for “in rats”, “test. Mice” for “test. Rats”, “the mice” for “the rats”, “Each mouse” for “Each rat”
as §3
The Von Frey test was performed once before the surgery. On the second day after animal modeling, the test was repeated, and animals meeting the baseline requirements were selected for enrollment. The animals were randomly grouped based on the 50% PWT values, with 10 animals per group. Administration was performed under a double-blind test protocol. The 50% PWT of the animals was measured separately before administration (baseline) and at 0.5 h, 2 h, and 4 h after administration, and a single dose was administered. The model control group was given normal saline, while the compound groups were given the compounds according to the administration doses in the table below.

The subject of experiment [7] is incision pain model. The experiment is described as follows: Incision pain model in ICR mice, Von Frey test. The experiment is classed as in vivo. The note with it: 50 mg/kg single dose, Mean + SEM, n = 10.

Usually IC50 stands for the concentration that gives 50% inhibition.

Each structure is given as a SMILES string.

T1 sequence (Q9Y5Y9 whole entry): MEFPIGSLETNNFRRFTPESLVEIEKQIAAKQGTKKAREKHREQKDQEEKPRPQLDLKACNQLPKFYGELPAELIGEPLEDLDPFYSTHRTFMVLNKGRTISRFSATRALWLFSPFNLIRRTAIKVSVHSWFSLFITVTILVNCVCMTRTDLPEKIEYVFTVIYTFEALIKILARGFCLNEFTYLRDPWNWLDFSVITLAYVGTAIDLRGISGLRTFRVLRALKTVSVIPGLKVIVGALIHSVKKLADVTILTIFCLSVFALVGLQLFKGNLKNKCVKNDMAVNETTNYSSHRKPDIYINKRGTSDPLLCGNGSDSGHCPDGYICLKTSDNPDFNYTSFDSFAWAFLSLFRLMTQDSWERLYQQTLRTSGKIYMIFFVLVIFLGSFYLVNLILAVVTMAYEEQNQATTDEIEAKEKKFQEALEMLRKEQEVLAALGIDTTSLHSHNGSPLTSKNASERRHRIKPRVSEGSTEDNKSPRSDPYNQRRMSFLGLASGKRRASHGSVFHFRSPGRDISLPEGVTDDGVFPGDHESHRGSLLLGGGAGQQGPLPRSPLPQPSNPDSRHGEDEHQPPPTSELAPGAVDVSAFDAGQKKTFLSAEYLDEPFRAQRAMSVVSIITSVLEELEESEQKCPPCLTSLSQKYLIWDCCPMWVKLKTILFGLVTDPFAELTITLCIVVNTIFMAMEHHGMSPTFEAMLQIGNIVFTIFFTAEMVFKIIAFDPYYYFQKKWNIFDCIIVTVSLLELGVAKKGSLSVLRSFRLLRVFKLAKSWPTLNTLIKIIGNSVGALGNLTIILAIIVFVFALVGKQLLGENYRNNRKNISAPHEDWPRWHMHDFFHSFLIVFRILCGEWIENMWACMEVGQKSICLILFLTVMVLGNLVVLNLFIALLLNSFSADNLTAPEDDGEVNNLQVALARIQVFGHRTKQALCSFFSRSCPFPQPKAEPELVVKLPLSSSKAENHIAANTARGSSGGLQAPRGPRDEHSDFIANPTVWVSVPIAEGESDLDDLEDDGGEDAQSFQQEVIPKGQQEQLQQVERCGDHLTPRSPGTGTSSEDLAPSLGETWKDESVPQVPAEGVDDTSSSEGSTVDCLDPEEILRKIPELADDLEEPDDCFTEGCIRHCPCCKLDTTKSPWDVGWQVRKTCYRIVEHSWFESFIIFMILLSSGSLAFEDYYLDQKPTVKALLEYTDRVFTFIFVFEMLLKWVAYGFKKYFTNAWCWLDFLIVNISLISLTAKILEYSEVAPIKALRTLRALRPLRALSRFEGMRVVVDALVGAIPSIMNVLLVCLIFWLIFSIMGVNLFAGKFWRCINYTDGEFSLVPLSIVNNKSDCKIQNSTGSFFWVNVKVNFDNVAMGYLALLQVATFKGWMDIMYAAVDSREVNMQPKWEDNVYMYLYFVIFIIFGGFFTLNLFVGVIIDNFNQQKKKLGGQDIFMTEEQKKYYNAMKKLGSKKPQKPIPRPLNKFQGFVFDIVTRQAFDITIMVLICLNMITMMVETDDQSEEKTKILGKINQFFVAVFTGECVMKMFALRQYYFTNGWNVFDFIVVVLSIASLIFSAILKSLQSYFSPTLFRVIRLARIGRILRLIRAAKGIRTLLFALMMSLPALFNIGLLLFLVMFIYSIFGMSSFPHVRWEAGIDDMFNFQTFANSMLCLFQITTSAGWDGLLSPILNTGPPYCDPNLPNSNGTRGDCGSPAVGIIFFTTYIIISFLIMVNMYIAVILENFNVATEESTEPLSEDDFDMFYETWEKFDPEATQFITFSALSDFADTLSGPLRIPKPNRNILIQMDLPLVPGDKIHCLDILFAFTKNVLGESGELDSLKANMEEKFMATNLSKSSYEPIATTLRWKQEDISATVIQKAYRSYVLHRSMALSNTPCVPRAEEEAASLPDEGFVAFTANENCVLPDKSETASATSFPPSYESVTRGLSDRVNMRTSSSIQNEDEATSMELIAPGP

As for `COc1c([C@H]2[C@H](C(=O)Nc3ccnc(C(N)=O)c3)O[C@@](C)(C(F)(F)F)[C@H]2C)ccc(F)c1F` [VX-548, reference compound], the “PWT 50% value (g) Post-surgery, Preadministration” value (“PWT 50% value (g) Post-surgery” for short) in experiment [1] (125 mg/kg group, baseline before administration) came to 3.95 ± 1.19 g. Besides, in experiment [1] (125 mg/kg group, baseline before surgery), the “PWT 50% value (g) Pre-surgery” value worked out at 14.09 ± 1.46 g. Also, the “PWT 50% value (g) Time 0.5 h” value in experiment [1] (125 mg/kg single dose, 0.5 h after administration) was 7.61 ± 5.9 g. For the same compound, the “PWT 50% value (g) Time 2 h” value in experiment [1] (125 mg/kg single dose, 2 h after administration) came out at 8.97 ± 3.33 g. Also, the “PWT 50% value (g) Time 6 h” value in experiment [1] (125 mg/kg single dose, 6 h after administration) was 6.27 ± 2.34 g. In experiment [1] (125 mg/kg single dose, 8 h after administration), the “PWT 50% value (g) Time 8 h” value is 5.89 ± 2.07 g. In addition, in experiment [1] (125 mg/kg single dose), the “PWT 50% value (g) AUC0-8h” value was determined as 58.66 ± 10.33 g. The “Number of pain responses 0 min” value in experiment [2] (0 min) is on record as 24.3±8.5. In addition, the “Number of pain responses 10 min” value in experiment [2] (10 min) came to 2.4±2.8. In experiment [2] (15 min), the “Number of pain responses 15 min” value was determined as 8.8±6.4. Moreover, in experiment [2] (30 min), the “Number of pain responses 30 min” value amounted to 13.2±6.3. For the same compound, the “Number of pain responses 40 min” value in experiment [2] (40 min) is 10.1±6.9. Moreover, the “Number of pain responses 50 min” value in experiment [2] (50 min) is 4.1±4.7. The “Number of pain responses 60 min” value in experiment [2] (60 min) came to 4.7±5.6. Further, in experiment [3] (60 min before 0.8% acetic acid i.p., 30 min observation, Mean + SD, n = 10), the “Number of writhing responses” value is listed as 29±16. For the same compound, the “Inhibition rate (%)” value in experiment [3] (inhibition of writhing responses vs control group) worked out at 41.24%.
Regarding `Cc1ccc(-c2cc(C(F)(F)F)nn2-c2ccc(S(N)(=O)=O)cc2)cc1` [Celecoxib, reference compound], in experiment [4] (80 mg/kg group, baseline before administration), the “PWT 50% value (g) Post-surgery” value turned out to be 3.12 ± 1.14 g. In experiment [4] (80 mg/kg group, baseline before modeling), the “PWT 50% value (g) Pre-surgery” value turned out to be 11.74 ± 2.33 g. In experiment [4] (80 mg/kg, 0.5 h after administration), the “PWT 50% value (g) Time 0.5 h” value is 5.91 ± 4.09 g. Moreover, the “PWT 50% value (g) Time 2 h” value in experiment [4] (80 mg/kg, 2 h after administration) turned out to be 4.66 ± 1.69 g. In addition, the “PWT 50% value (g) Time 8 h” value in experiment [4] (80 mg/kg, 8 h after administration) was found to be 3.4 ± 1.38 g. Further, the “PWT 50% value (g) AUC0-8h” value in experiment [4] (80 mg/kg) worked out at 40.7 ± 15.63 g.
In the case of `COc1c([C@@H]2C[C@](C)(C(F)(F)F)S[C@H]2C(=O)Nc2ccc(NS(N)(=O)=O)c(F)c2)ccc(F)c1F` [a-19-A, (2R,3S,5R)-3-(3,4-difluoro-2-methoxyphenyl)-N-[3-fluoro-4-(sulfamoylamino)phenyl]-5-methyl-5-(trifluoromethyl)thiolane-2-carboxamide], 0.34 nM corresponded to half-maximal inhibition in experiment [5] (IC50). In experiment [6], the “PWT 50% value (g) Post-surgery” value was found to be 0.29 ± 0.13 g; the “PWT 50% value (g) Pre-surgery” value stood at 1.33 ± 0.46 g; the “PWT 50% value (g) 0.5 h” value is 0.47 ± 0.22 g; the “PWT 50% value (g) 2 h” value came out at 0.51 ± 0.29 g. Further, in experiment [6], the “PWT 50% value (g) 4 h” value is 0.44 ± 0.18 g. In experiment [7], the “PWT 50% value (g) AUC0-8h” value is 3.04 ± 0.83 g·h.
For `CO/N=C(\N)c1cc(NC(=O)[C@@H]2S[C@@](C)(C(F)(F)F)C[C@H]2c2ccc(F)c(F)c2OC)ccn1` [a-57-A], in experiment [5], the midpoint of inhibition, the IC50, lay at 0.023 nM. In addition, in experiment [6], the “PWT 50% value (g) Post-surgery” value came to 0.22 ± 0.02 g; the “PWT 50% value (g) Pre-surgery” value was determined as 1.29 ± 0.22 g; the “PWT 50% value (g) 0.5 h” value worked out at 0.43 ± 0.18 g; the “PWT 50% value (g) 2 h” value stood at 0.38 ± 0.14 g. Further, in experiment [6], the “PWT 50% value (g) 4 h” value turned out to be 0.29 ± 0.11 g. Also, the “PWT 50% value (g) AUC0-8h” value in experiment [7] worked out at 4.4 ± 0.41 g·h.

For the origin of these results see patent EP4813993A1, “COMPOUND, PREPARATION METHOD THEREFOR, AND USE THEREOF” (Sichuan Kelun Pharmaceutical Research Institute Co., Ltd., priority 2023, dated 2025).
